Measured values published in patent US10945435B2, “Imidazopyrimidine derivatives with sulfur containing phenyl and pyridyl substituents” (SYNGENTA PARTICIPATIONS AG, priority 2017, dated 2021).

Legend:
Format in all cases: in vivo
[1] = tested on: Diabrotica balteata (Corn Root Worm); test: Example B4 Diabrotica balteata mortality; conditions: 96 h, application rate of 200 ppm, L2 larvae on sprayed maize sprouts, 4 days after infestation
Procedure: Diabrotica Balteata (Corn Root Worm):
(§1) Maize sprouts placed onto an agar layer in 24-well microtiter plates were treated with aqueous test solutions prepared from 10,000 ppm DMSO stock solutions by spraying. After drying, the plates were infested with L2 larvae (6 to 10 per well). The samples were assessed for mortality 4 days after infestation.

[2] = tested on: Bemisia tabaci (Cotton White Fly); test: Example B1 Bemisia tabaci feeding/contact activity; conditions: foliar, 144 h, application rate of 200 ppm, adult white flies on sprayed cotton leaf discs, 6 days after incubation
Procedure: Bemisia tabaci (Cotton White Fly): Feeding/Contact Activity
Cotton leaf discs were placed on agar in 24-well microtiter plates and sprayed with aqueous test solutions prepared from 10,000 ppm DMSO stock solutions. After drying the leaf discs were infested with adult white flies. The samples were checked for mortality 6 days after incubation.

[3] = tested on: Diabrotica balteata (Corn Root Worm); test: Example B2 Diabrotica balteata mortality and growth inhibition; conditions: 96 h, application rate of 200 ppm, L2 larvae on sprayed maize sprouts, 4 days after infestation, read-out: effect in at least one of the two categories (mortality or growth inhibition)
Procedure: Diabrotica balteata (Corn Root Worm)
as §1, with “mortality and growth inhibition in comparison to untreated samples” for “mortality”

[4] = tested on: Euschistus heros (Neotropical Brown Stink Bug); test: Example B5 Euschistus heros mortality and growth inhibition; conditions: 120 h, application rate of 200 ppm, N2 nymphs on sprayed soybean leaves, 5 days after infestation, read-out: effect in at least one of the two categories (mortality or growth inhibition)
Procedure: Euschistus heros (Neotropical Brown Stink Bug)
Soybean leaves on agar in 24-well microtiter plates were sprayed with aqueous test solutions prepared from 10,000 ppm DMSO stock solutions. After drying the leaves were infested with N2 nymphs. The samples were assessed for mortality and growth inhibition in comparison to untreated samples 5 days after infestation.

[5] = tested on: Myzus persicae (Green Peach Aphid); test: Example B9 Myzus persicae feeding/contact activity; conditions: foliar, 144 h, application rate of 200 ppm, mixed-age aphids on sprayed sunflower leaf discs, 6 days after infestation
Procedure: Myzus persicae (Green Peach Aphid): Feeding/Contact Activity
Sunflower leaf discs were placed onto agar in a 24-well microtiter plate and sprayed with aqueous test solutions prepared from 10,000 ppm DMSO stock solutions. After drying, the leaf discs were infested with an aphid population of mixed ages. The samples were assessed for mortality 6 days after infestation.

[6] = tested on: Euschistus heros (Neotropical Brown Stink Bug); test: Example B7 Euschistus heros feeding/contact activity; conditions: 120 h, application rate of 200 ppm, N2 nymphs on sprayed soybean leaves, 5 days after infestation
Procedure: Euschistus heros (Neotropical Brown Stink Bug): Feeding/Contact Activity
Soybean leaves on agar in 24-well microtiter plates were sprayed with aqueous test solutions prepared from 10,000 ppm DMSO stock solutions. After drying the leaves were infested with N2 nymphs. The samples were assessed for mortality 5 days after infestation.

[7] = tested on: Spodoptera littoralis (Egyptian Cotton Leaf Worm); test: Example B15 Spodoptera littoralis growth inhibition activity; conditions: foliar, 72 h, application rate of 200 ppm, L1 larvae on sprayed cotton leaf discs, 3 days after infestation, read-out: control (growth inhibition)
Procedure: Spodoptera littoralis (Egyptian Cotton Leaf Worm): Growth Inhibition Activity
(§2) Cotton leaf discs were placed onto agar in 24-well microtiter plates and sprayed with aqueous test solutions prepared from 10,000 ppm DMSO stock solutions. After drying the leaf discs were infested with five L1 larvae. The samples were assessed for growth inhibition in comparison to untreated samples 3 days after infestation. Control of Spodoptera littoralis by a test sample is given when the growth inhibition is higher than the untreated sample.

[8] = tested on: Plutella xylostella (Diamond Back Moth); test: Example B13 Plutella xylostella mortality and growth inhibition; conditions: 120 h, application rate of 200 ppm, L2 larvae on treated artificial diet, 5 days after infestation, read-out: effect in at least one of the two categories (mortality or growth inhibition)
Procedure: Plutella xylostella (Diamond Back Moth)
(§3) 24-well microtiter plates with artificial diet were treated with aqueous test solutions prepared from 10,000 ppm DMSO stock solutions by pipetting. After drying, the plates were infested with L2 larvae (10 to 15 per well). The samples were assessed for mortality and growth inhibition in comparison to untreated samples 5 days after infestation.

[9] = tested on: Spodoptera littoralis (Egyptian Cotton Leaf Worm); test: Example B14 Spodoptera littoralis anti-feeding activity; conditions: foliar, 72 h, application rate of 200 ppm, L1 larvae on sprayed cotton leaf discs, 3 days after infestation, read-out: control (anti-feeding effect)
Procedure: Spodoptera littoralis (Egyptian Cotton Leaf Worm): Anti-Feeding Activity
as §2, with “for anti-feeding effect” for “for growth inhibition”, “the anti-feedant effect” for “the growth inhibition”

[10] = tested on: Spodoptera littoralis (Egyptian Cotton Leaf Worm); test: Example B16 Spodoptera littoralis feeding/contact activity; conditions: foliar, 72 h, application rate of 200 ppm, L1 larvae on sprayed cotton leaf discs, 3 days after infestation
Procedure: Spodoptera littoralis (Egyptian Cotton Leaf Worm): Feeding/Contact Activity
Cotton leaf discs were placed onto agar in 24-well microtiter plates and sprayed with aqueous test solutions prepared from 10,000 ppm DMSO stock solutions. After drying the leaf discs were infested with five L1 larvae. The samples were assessed for mortality 3 days after infestation.

[11] = tested on: Plutella xylostella (Diamond Back Moth); test: Example B12 Plutella xylostella feeding/contact activity; conditions: 120 h, application rate of 200 ppm, L2 larvae on treated artificial diet, 5 days after infestation
Procedure: Plutella xylostella (Diamond Back Moth): Feeding/Contact Activity
24-well microtiter plates with artificial diet were treated with aqueous test solutions prepared from 10,000 ppm DMSO stock solutions by pipetting. After drying, the plates were infested with L2 larvae (10 to 15 per well). The samples were assessed for mortality 5 days after infestation.

[12] = tested on: Plutella xylostella (Diamond Back Moth); test: Example B11 Plutella xylostella growth inhibition activity; conditions: 120 h, application rate of 200 ppm, L2 larvae on treated artificial diet, 5 days after infestation
Procedure: Plutella xylostella (Diamond Back Moth): Growth Inhibition Activity
as §3, with “for” for “for mortality and”, “infestation. Control of Plutella xylostella by a test sample is given when the growth inhibition is higher than the untreated sample.” for “infestation.”

[13] = tested on: Myzus persicae (Green Peach Aphid); test: Example B10 Myzus persicae systemic activity; conditions: 144 h, test rate of 24 ppm, roots of infested pea seedlings in test solution, 6 days
Procedure: Myzus persicae (Green Peach Aphid). Systemic Activity
Roots of pea seedlings infested with an aphid population of mixed ages were placed directly into aqueous test solutions prepared from 10,000 DMSO stock solutions. The samples were assessed for mortality 6 days after placing seedlings into test solutions.

[14] = tested on: Frankliniella occidentalis (Western Flower Thrips); test: Example B8 Frankliniella occidentalis feeding/contact activity; conditions: foliar, 168 h, application rate of 200 ppm, mixed-age population on sprayed sunflower leaf discs, 7 days after infestation
Procedure: Frankliniella occidentalis (Western Flower Thrips): Feeding/Contact Activity
Sunflower leaf discs were placed on agar in 24-well microtiter plates and sprayed with aqueous test solutions prepared from 10,000 DMSO stock solutions. After drying the leaf discs were infested with a Frankliniella population of mixed ages. The samples were assessed for mortality 7 days after infestation.

CCS(=O)(=O)c1cc(OCC(F)F)cnc1-c1cn2cnc(SC(F)(F)F)cc2n1 [Compound P4, 2-[5-(2,2-difluoroethoxy)-3-ethylsulfonyl-2-pyridyl]-7-(trifluoromethylsulfanyl)imidazo[1,2-c]pyrimidine]
≥ 80%: mortality at 200 ppm [1] | mortality at 200 ppm [2] | percent effect (mortality or growth inhibition) at 200 ppm [3] | percent effect (mortality or growth inhibition) at 200 ppm [4] | mortality at 200 ppm [5] | mortality at 200 ppm [6] | inhibition at 200 ppm [7] | percent effect (mortality or growth inhibition) at 200 ppm [8] | pest or weed control at 200 ppm [9] | mortality at 200 ppm [10] | mortality at 200 ppm [11] | inhibition at 200 ppm [12]

CCS(=O)(=O)c1cc(OC)cnc1-c1cn2cnc(C(F)(F)F)cc2n1 [Compound P9, 2-(3-ethylsulfonyl-5-methoxy-2-pyridyl)-7-(trifluoromethyl)imidazo[1,2-c]pyrimidine]
≥ 80%: mortality at 200 ppm [1] | percent effect (mortality or growth inhibition) at 200 ppm [3] | mortality at 200 ppm [5] | inhibition at 200 ppm [7] | mortality at 24 ppm [13] | percent effect (mortality or growth inhibition) at 200 ppm [8] | pest or weed control at 200 ppm [9] | mortality at 200 ppm [10] | mortality at 200 ppm [11] | inhibition at 200 ppm [12]

CCS(=O)(=O)c1cc(OCSC)cnc1-c1cn2cnc(C(F)(F)F)cc2n1 [Compound P16, 2-[3-ethylsulfonyl-5-(methylsulfanylmethoxy)-2-pyridyl]-7-(trifluoromethyl)imidazo[1,2-c]pyrimidine]
≥ 80%: mortality at 200 ppm [1] | mortality at 200 ppm [2] | percent effect (mortality or growth inhibition) at 200 ppm [3] | percent effect (mortality or growth inhibition) at 200 ppm [4] | mortality at 200 ppm [5] | mortality at 200 ppm [14] | mortality at 200 ppm [6] | mortality at 24 ppm [13] | percent effect (mortality or growth inhibition) at 200 ppm [8] | pest or weed control at 200 ppm [9] | mortality at 200 ppm [10] | inhibition at 200 ppm [12]

CCS(=N)(=O)c1cc(OC(C)(C)C#N)cnc1-c1cn2cnc(C(F)(F)C(F)(F)F)cc2n1 (centres unmarked) [Compound P19, 2-[[5-(ethylsulfonimidoyl)-6-[7-(1,1,2,2,2-pentafluoroethyl)imidazo[1,2-c]pyrimidin-2-yl]-3-pyridyl]oxy]-2-methyl-propanenitrile]
≥ 80%: mortality at 200 ppm [1] | mortality at 200 ppm [2] | percent effect (mortality or growth inhibition) at 200 ppm [3] | percent effect (mortality or growth inhibition) at 200 ppm [4] | mortality at 200 ppm [5] | mortality at 200 ppm [14] | mortality at 200 ppm [6] | inhibition at 200 ppm [7] | mortality at 24 ppm [13] | percent effect (mortality or growth inhibition) at 200 ppm [8] | pest or weed control at 200 ppm [9] | mortality at 200 ppm [10] | mortality at 200 ppm [11] | inhibition at 200 ppm [12]

CCS(=O)(=O)c1cc(OC(C)(C)C(N)=O)cnc1-c1cn2cnc(C(F)(F)F)cc2n1 [Compound P12, 2-[[5-ethylsulfonyl-6-[7-(trifluoromethyl)imidazo[1,2-c]pyrimidin-2-yl]-3-pyridyl]oxy]-2-methyl-propanamide]
≥ 80%: percent effect (mortality or growth inhibition) at 200 ppm [4] | mortality at 200 ppm [5] | mortality at 200 ppm [6] | inhibition at 200 ppm [7]

CCS(=O)(=O)c1cc(OC)cnc1-c1cn2cnc(SC(F)(F)F)cc2n1 [Compound P5, 2-(3-ethylsulfonyl-5-methoxy-2-pyridyl)-7-(trifluoromethylsulfanyl)imidazo[1,2-c]pyrimidine]
≥ 80%: mortality at 200 ppm [1] | percent effect (mortality or growth inhibition) at 200 ppm [3] | percent effect (mortality or growth inhibition) at 200 ppm [4] | mortality at 200 ppm [5] | mortality at 200 ppm [6] | inhibition at 200 ppm [7] | percent effect (mortality or growth inhibition) at 200 ppm [8] | pest or weed control at 200 ppm [9] | mortality at 200 ppm [10] | mortality at 200 ppm [11]

CCS(=O)(=O)c1cc(OC(C)(C)C#N)cnc1-c1cn2cnc(C(F)(F)F)cc2n1 [Compound P13, 2-[[5-ethylsulfonyl-6-[7-(trifluoromethyl)imidazo[1,2-c]pyrimidin-2-yl]-3-pyridyl]oxy]-2-methyl-propanenitrile]
≥ 80%: mortality at 200 ppm [1] | mortality at 200 ppm [2] | percent effect (mortality or growth inhibition) at 200 ppm [3] | percent effect (mortality or growth inhibition) at 200 ppm [4] | mortality at 200 ppm [5] | mortality at 200 ppm [14] | mortality at 200 ppm [6] | percent effect (mortality or growth inhibition) at 200 ppm [8] | pest or weed control at 200 ppm [9] | mortality at 200 ppm [10] | mortality at 200 ppm [11] | inhibition at 200 ppm [12]

CCS(=O)(=O)c1cc(OC(C)(C)C#N)cnc1-c1cn2cnc(SC(F)(F)F)cc2n1 [Compound P17, 2-[[5-ethylsulfonyl-6-[7-(trifluoromethylsulfanyl)imidazo[1,2-c]pyrimidin-2-yl]-3-pyridyl]oxy]-2-methyl-propanenitrile]
≥ 80%: mortality at 200 ppm [1] | mortality at 200 ppm [2] | percent effect (mortality or growth inhibition) at 200 ppm [3] | percent effect (mortality or growth inhibition) at 200 ppm [4] | mortality at 200 ppm [5] | mortality at 200 ppm [14] | mortality at 200 ppm [6] | inhibition at 200 ppm [7] | percent effect (mortality or growth inhibition) at 200 ppm [8] | pest or weed control at 200 ppm [9] | mortality at 200 ppm [10] | mortality at 200 ppm [11]
